According to article PMC11790914, “Chemogenomics for steroid hormone receptors (NR3)” (Communications Chemistry, 2025):
Values joined by “and” are separate entries in the source; they are usually repeats but may differ in a detail not shown here. Equal values may be shown once.

How the values were obtained:
[1] = other targets with annotated bioactivities at ≤10 µM in previously published dataset; cited from earlier work
[2] = test system: HEK293T cells; experiment: Cytotoxicity: growth-rate (change in confluence over 24 h); details: 1 µM, normalized to 0.1% DMSO control, single replicates (n=1...)
[3] = test system: HEK293T cells; experiment: Cytotoxicity: apoptosis induction (caspase-3/7 DEVD fluorogenic DNA dye); details: 1 µM; HEK293T, 24 h; apoptotic cell count normalized to 0.1% DMSO; single replicates
[4] = test system: NF-κB activity in HEK293 NF-κB reporter cells; experiment: NF-kB activity assay (GFP reporter, ionomycin/PMA); format: cell-based; details: for Mean NFκB response: n=3
Procedure: Fig. 6 Application of the NR3 CG set.
After 24 h, cells were incubated with the test compounds solubilized with 0.1% DMSO in the same medium without puromycin. After 4 h incubation, ionomycin (100 ng/mL) and phorbol-12-myristat-13-acetate (PMA, 10 ng/mL) was added, and the cells were imaged for confluence and GFP expression every 90 min. over 24 h using a Tecan SPARK Cyto (Tecan). The number of GFP expressing cells was normalized to confluence in each sample. Each sample was repeated in three biologically independent experiments.

[5] = test system: HEK293T cells; experiment: Cytotoxicity: necrosis induction (red fluorescent dye for permeable plasma membranes); format: cell-based; details: 1 µM, 24 h, necrotic cell count normalized to 0.1% DMSO, single replicates;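 also: compounds applied in DMEM high glucose with 0.1% FCS and 0.1% DMSO, necrotic HEK293T cells counted by red staining of cells whose plasma membranes had become permeable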
[6] = test system: ATF6 activity in Hela ATF6 reporter cells; experiment: Endoplasmic reticulum stress assay (ATF6 Renilla luciferase reporter, tunicamycin); format: cell-based; details: Homo sapiens, HeLa, 1 µM, single replicates n=1 to n=5; read-out: ER stress [rel. ATF6 activity]
Procedure: After 24 h, cells were incubated with the test compounds solubilized with 0.1% DMSO in the same medium without puromycin. After 4 h incubation, tunicamycin (100 ng/mL) was added. After another 18 h incubation, cells were assayed for renilla luminescence using DualGlo reagent (Promega) on a Tecan SPARK Cyto (Tecan). Test samples were normalized to the 0.1% DMSO control. Each sample was repeated in five biologically independent experiments.

[7] = test system: HEK293T cells; experiment: Cytotoxicity: metabolic activity (WST-8 / CCK-8 assay); details: 1 µM; HEK293T, 24 h; WST-8; normalized to 0.1% DMSO; single replicates

## C[C@]12CC[C@@H]3c4ccc(O)cc4CC[C@H]3[C@@H]1CC[C@@H]2O [17β-Estradiol]
[1]
  Reason for exclusion: number of annotated off-targets: > 5 off-targets

## CCC(=C(c1ccc(O)cc1)c1ccc(OCCN(C)C)cc1)c1ccccc1 [(E,Z)-Hydroxytamoxifen]
[1]
  Reason for exclusion: number of annotated off-targets: > 5 off-targets

## CC(O)(CS(=O)(=O)c1ccc(F)cc1)C(=O)Nc1ccc(C#N)c(C(F)(F)F)c1 (centres unmarked) [Bicalutamide]
[1]
  Reason for exclusion: number of annotated off-targets: > 5 off-targets

## O=c1oc2cc(O)ccc2c2oc3cc(O)ccc3c12 [Coumestrol]
[1]
  Reason for exclusion: number of annotated off-targets: > 5 off-targets

## O=c1c(-c2ccc(O)cc2)coc2cc(O)ccc12 [Daidzein]
[1]
  Reason for exclusion: number of annotated off-targets: > 5 off-targets

## C[C@]12CCC(=O)C[C@@H]1CC[C@@H]1[C@@H]2CC[C@]2(C)[C@@H](O)CC[C@@H]12 [Dihydrotestosterone]
[1]
  Reason for exclusion: number of annotated off-targets: > 5 off-targets

## C/C=C1/C(=O)C[C@H]2[C@@H]3CCC4=CC(=O)CC[C@]4(C)[C@H]3CC[C@]12C [E-Guggulsterone]
[1]
  Reason for exclusion: number of annotated off-targets: > 5 off-targets

## CCN(CC)CCOc1ccc(/C(=C(/Cl)c2ccccc2)c2ccccc2)cc1.Cl [Enclomiphene hydrochloride]
[1]
  Reason for exclusion: number of annotated off-targets: > 5 off-targets

## CNC(=O)c1ccc(N2C(=S)N(c3ccc(C#N)c(C(F)(F)F)c3)C(=O)C2(C)C)cc1F [Enzalutamide]
[2]
  Growth rate [GR]: 0.61 and 1.23 and 0.75 and 1.17 and 0.84 and 0.95 and 1.00 and 2.30 and 3.82 and 0.45
[3]
  Apoptosis induction [AI]: 0.86 and 1.10 and 1.13 and 0.75 and 1.01 and 0.84
[4]; 1 µM, 1,5 h
  Mean NFκB response: 4053.16 GFP+-cells/confluence ∙ 1000
[4]; 1 µM, 4,5 h
  Mean NFκB response: 4748.63 GFP+-cells/confluence ∙ 1000
[4]; 1 µM, 7,5 h
  Mean NFκB response: 9147.14 GFP+-cells/confluence ∙ 1000
[4]; 1 µM, 10,5 h
  Mean NFκB response: 19308.05 GFP+-cells/confluence ∙ 1000
[4]; 1 µM, 13,5 h
  Mean NFκB response: 27440.00 GFP+-cells/confluence ∙ 1000
[4]; 1 µM, 16,6 h
  Mean NFκB response: 33976.67 GFP+-cells/confluence ∙ 1000
[4]; 1 µM, 19,5 h
  Mean NFκB response: 37833.33 GFP+-cells/confluence ∙ 1000
[4]; 1 µM, 22,5 h
  Mean NFκB response: 41216.67 GFP+-cells/confluence ∙ 1000
[4]; 1 µM, 3 h
  Mean NFκB response: 4315.98 GFP+-cells/confluence ∙ 1000
[4]; 1 µM, 6 h
  Mean NFκB response: 6007.28 GFP+-cells/confluence ∙ 1000
[4]; 1 µM, 9 h
  Mean NFκB response: 14317.85 GFP+-cells/confluence ∙ 1000
[4]; 1 µM, 12 h
  Mean NFκB response: 23650.00 GFP+-cells/confluence ∙ 1000
[4]; 1 µM, 15 h
  Mean NFκB response: 31096.67 GFP+-cells/confluence ∙ 1000
[4]; 1 µM, 18 h
  Mean NFκB response: 36023.33 GFP+-cells/confluence ∙ 1000
[4]; 1 µM, 21 h
  Mean NFκB response: 39446.67 GFP+-cells/confluence ∙ 1000
[4]; 1 µM, 24 h
  Mean NFκB response: 42106.67 GFP+-cells/confluence ∙ 1000
[4]; HEK293 NF-κB reporter cells, compounds at recommended concentrations, imaged over 24 h, n = 3
  NF-κB activity (inflammatory response to ionomycin/PMA): tended to enhance NF-κB activity
[5]
  Necrosis induction [NI]: 0.88 and 0.97 and 0.94 and 0.81
[6]
  activity at 1 µM: 99% and 117%
[7]
  Metabolic activity [MA]: 1.02 and 1.04 and 1.01 (2×) and 0.98 and 1.13

## C[C@]12CC[C@@H]3c4ccc(OC(=O)c5ccccc5)cc4CC[C@H]3[C@@H]1CC[C@@H]2O [Estradiol benzoate]
[1]
  Reason for exclusion: number of annotated off-targets: > 5 off-targets

## C[C@]12CC[C@@H]3c4ccc(O)cc4CC[C@H]3[C@@H]1C[C@@H](O)[C@@H]2O [Estriol]
[1]
  Reason for exclusion: number of annotated off-targets: > 5 off-targets

## CC(C)C(=O)Nc1ccc([N+](=O)[O-])c(C(F)(F)F)c1 [Flutamide]
[1]
  Reason for exclusion: number of annotated off-targets: > 5 off-targets

## C[C@@H]1C[C@H]2[C@@H]3C[C@H](F)C4=CC(=O)C=C[C@]4(C)[C@@]3(F)[C@@H](O)C[C@]2(C)[C@@]1(OC(=O)c1ccco1)C(=O)SCF [Fluticasone furoate]
[1]
  Reason for exclusion: number of annotated off-targets: > 5 off-targets

## C[C@]12CC[C@H](O)CC1=CC[C@@H]1[C@@H]2CC[C@]2(C)C(n3cnc4ccccc43)=CC[C@@H]12 [Galeterone]
[1]
  Reason for exclusion: number of annotated off-targets: > 5 off-targets

## O=c1c(-c2ccc(O)cc2)coc2cc(O)cc(O)c12 [Genistein]
[1]
  Reason for exclusion: number of annotated off-targets: > 5 off-targets

## Oc1c(Cl)cc(Cl)c(Cl)c1Cc1c(O)c(Cl)cc(Cl)c1Cl [Hexachlorophene]
[1]
  Reason for exclusion: number of annotated off-targets: > 5 off-targets

## CC(=O)[C@@]1(O)CC[C@H]2[C@@H]3CCC4=CC(=O)CC[C@]4(C)[C@H]3CC[C@@]21C [Hydroxyprogesterone]
[1]
  Reason for exclusion: number of annotated off-targets: > 5 off-targets

## COc1ccc2c(c1)c(CC(=O)O)c(C)n2C(=O)c1ccc(Cl)cc1 [Indomethacin]
[1]
  Reason for exclusion: number of annotated off-targets: > 5 off-targets

## CC(=O)O[C@]1(C(C)=O)CC[C@H]2[C@@H]3C[C@H](C)C4=CC(=O)CC[C@]4(C)[C@H]3CC[C@@]21C [Medroxyprogesterone acetate]
[1]
  Reason for exclusion: number of annotated off-targets: > 5 off-targets

## COc1cc([C@@H]2c3cc4c(cc3[C@H](O)[C@H]3COC(=O)[C@H]23)OCO4)cc(OC)c1OC [Podophyllotoxin]
[1]
  Reason for exclusion: number of annotated off-targets: > 5 off-targets

## C[C@]12C=CC(=O)C=C1CC[C@@H]1[C@@H]2[C@@H](O)C[C@@]2(C)[C@H]1CC[C@]2(O)C(=O)CO [Prednisolone]
[1]
  Reason for exclusion: number of annotated off-targets: > 5 off-targets

## CC(=O)[C@H]1CC[C@H]2[C@@H]3CCC4=CC(=O)CC[C@]4(C)[C@H]3CC[C@]12C [Progesterone]
[1]
  Reason for exclusion: number of annotated off-targets: > 5 off-targets

## CC(=O)S[C@@H]1CC2=CC(=O)CC[C@]2(C)[C@H]2CC[C@@]3(C)[C@@H](CC[C@@]34CCC(=O)O4)[C@H]12 [Spironolactone]
[1]
  Reason for exclusion: number of annotated off-targets: > 5 off-targets

## CC/C(=C(\c1ccccc1)c1ccc(OCCN(C)C)cc1)c1ccccc1 [Tamoxifen]
[1]
  Reason for exclusion: number of annotated off-targets: > 5 off-targets

## C[C@]12CC[C@H]3[C@@H](CCC4=CC(=O)CC[C@@]43C)[C@@H]1CC[C@@H]2O [Testosterone]
[1]
  Reason for exclusion: number of annotated off-targets: > 5 off-targets

## C[C@]12C=CC(=O)C=C1CC[C@H]1[C@@H]3C[C@@H](O)[C@](O)(C(=O)CO)[C@@]3(C)C[C@H](O)[C@@]12F [Triamcinolone]
[1]
  Reason for exclusion: number of annotated off-targets: > 5 off-targets
